Converted amounts (≈) assume the structure as drawn. “And” between values parts separate entries of the source, which are not always exact repeats. Identical values can stand only once. Counter-ions that a name gives are not always drawn. Like-named read-outs stand apart in the source and are kept apart here.
How the values were obtained:
physchem = assay type: physicochemical; conditions: thermodynamic from solid; for solubility: read-out: maximum soluble concentration
Procedure: 2. Solubility Assays of the Compounds Tested
Determining the Solubility at Different pH Values:
Therefor, a few mg of the compounds were weighed and mixed with the volume of 50 mM KH2PO4 buffer of respective pH value for a 50 mM solution. […] Subsequently, the undissolved portion was removed by centrifugation at 10.000 rpm for 15 min, and the concentration in the supernatant was determined by HPLC.

albumin = albumin (Homo sapiens, UniProt P02768); assay type: in vitro ADME; conditions: 4% albumin solution, average of three concentrations (10, 25, 50 μM)
albumin, sequence (P02768 25-609): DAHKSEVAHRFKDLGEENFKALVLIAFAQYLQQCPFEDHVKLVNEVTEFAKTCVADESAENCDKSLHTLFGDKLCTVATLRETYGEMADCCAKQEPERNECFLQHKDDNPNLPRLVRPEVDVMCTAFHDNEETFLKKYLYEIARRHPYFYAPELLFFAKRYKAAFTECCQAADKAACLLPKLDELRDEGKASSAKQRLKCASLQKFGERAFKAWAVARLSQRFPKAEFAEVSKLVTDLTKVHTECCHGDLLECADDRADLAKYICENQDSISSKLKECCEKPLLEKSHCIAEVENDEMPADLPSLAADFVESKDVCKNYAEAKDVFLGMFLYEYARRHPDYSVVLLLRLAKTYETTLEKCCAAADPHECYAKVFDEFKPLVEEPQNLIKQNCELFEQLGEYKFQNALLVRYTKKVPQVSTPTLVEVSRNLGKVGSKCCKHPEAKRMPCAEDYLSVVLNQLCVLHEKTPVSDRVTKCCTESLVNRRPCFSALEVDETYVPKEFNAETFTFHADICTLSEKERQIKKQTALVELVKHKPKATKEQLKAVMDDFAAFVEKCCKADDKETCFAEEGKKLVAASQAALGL
Procedure: 3. Determination of Protein Binding of the Amidine Effective Form (3) as Well as of Prodrugs Thereof (2, 4) and of the Guanidine Effective Form (9) as Well as of Prodrugs Thereof (6, 10)
The plasma protein binding was carried out in three different concentrations (10, 25, and 50 μM). A 4% albumin solution was used as protein solutions. In each case, 50 μl of a 10-fold concentrated substance solution were pipetted in 450 μl of the protein solution. The incubation was carried out for 15 minutes in the shaking water bath at 37° C. Subsequently, the samples were transferred in ultra-filtration units (Vivaspin 500, 10 kDa cut-off) and centrifuged for 15 min at 10.000 rpm. The filtrate was analyzed by HPLC. In addition, a control was run for each concentration, which was not treated with protein and not centrifuged.

in vivo = conditions: Sprague Dawley, rat, in vivo, po, 50 mg/kg
Procedure: Sprague Dawley (SD) rats were supplied for habitation 10 days before the start of the experiment, weighing ˜300-350 g and kept in an air conditioned room with a constant temperature of 20° C. and a humidity of 50%. In this room there was a day-night rhythm of twelve hours. The dark phase began daily at 18 o'clock and turned over to the light phase at 6 clock. The rats were kept over the acclimatization period in standard cages of the size 3 (length: 42 cm, width 26 cm, height: 15 cm) and transferred three days before commencement of an experiment into a special experimental room, placed in the identical environmental conditions. They received a maintenance diet (maintenance diet for rats and mice; No. 1320; Altromin) and tap water ad libitum.
A catheter was implanted in the vein as well as in the arteria femoralis of rats receiving an i.v. administration. Rats receiving only oral administration of substances received a […] catheter only.
The catheterized animals were kept after surgery for a day in the experimental room and individually in their experimental cages. The application of the test compounds was carried out on the second day after the operation. On the experimental day, the rats were weighed one hour prior to the test and the arterial catheter was flushed with 300 μl of heparin solution. Subsequently, the i.v. or oral administration of the compounds was carried out.
The oral administrations were performed as a suspension or solution made with gum arabic (10% w/v) by gavage.
The oral administrations were made as suspension or solution with gum arabic (10% w/v) by gavage.
After i.v. administration, plasma samples were taken at 5, 10, 20, 45, 90, 150, 240 and 360 min, respectively after oral administration after 30, 60, 90, 120, 180, 240 and 360 min. To this, in each case 300 μl of whole blood were taken using an insulin syringe and transferred into EDTA-coated Microvettes CB 300 (Sarstedt, Nümbrecht). After each withdrawal it was rinsed with 100 μl 0.9% saline or every 60 min with heparin solution (250 IU/ml). The blood sample was shaken briefly and put until centrifugation (4° C.; 14000 U/min; 10 min) on ice. Subsequently, the samples were frozen at −80° C.
The plasma samples were processed and analyzed by HPLC. Therefor, the plasma samples were thawed at room temperature. In each case, 80 μl methanol (+0.2% TFA) were prepared and subsequently 80 μl of the plasma samples were pipetted into. The samples were shaken for 45 min to precipitate plasma proteins. The samples were frozen at −80° C., thawed and shaken for another 15 min. The samples were centrifuged for 15 min at 13.000 RPM and the supernatant was transferred into HPLC vials. In each case 50 μl were used for the determinations by LC/MS.
The animal studies were evaluated using the following LC/MS method.

[1] = system: influenza A virus A/Jena/5258/2009 (pandemic H1N1; oseltamivir-sensitive); assay type: cell-based
[2] = system: influenza A virus A/Jena/5258/2009; assay: microbe, parasite or virus in culture; assay type: cell-based, influenza A virus H1N1; conditions: read-out: 50% inhibitory concentration, A/Jena/5258/2009
[3] = system: influenza A virus A/342/2009; assay: microbe, parasite or virus in culture; assay type: cell-based, influenza A virus H1N1; conditions: read-out: 50% inhibitory concentration, A/342/2009

Compound | solubility at 30 min (physchem; aqueous buffer) | solubility at 30 min (physchem; pH 2, aqueous buffer) | solubility at 30 min (physchem; pH 7.4, aqueous buffer) | solubility at 30 min (physchem; pH 9, aqueous buffer) | Protein binding (albumin) | Bioavailability (in vivo) | Plasma level of derivative 3 (Conc.) after oral administration of the labelled derivative (in vivo; 0 min) | Plasma level of derivative 3 (Conc.) after oral administration of the labelled derivative (in vivo; 30 min) | Plasma level of derivative 3 (Conc.) after oral administration of the labelled derivative (in vivo; 60 min) | Plasma level of derivative 3 (Conc.) after oral administration of the labelled derivative (in vivo; 90 min) | Plasma level of derivative 3 (Conc.) after oral administration of the labelled derivative (in vivo; 120 min) | Plasma level of derivative 3 (Conc.) after oral administration of the labelled derivative (in vivo; 180 min) | Plasma level of derivative 3 (Conc.) after oral administration of the labelled derivative (in vivo; 240 min) | Plasma level of derivative 3 (Conc.) after oral administration of the labelled derivative (in vivo; 360 min) | also measured
CCOC(=O)C1=C[C@@H](OC(CC)CC)[C@H](NC(C)=O)[C@@H](NC(C)=N)C1 [Compound 2, (3R,4R,5S)-4-acetamido-5-(N-acetimidamido)-3-(1-ethylpropoxy)cyclohex-1-en-1-carboxylic acid ethyl ester hydrobromide] | > 50 mM | > 17700 µg/mL and > 50000 µM | > 17700 µg/mL and > 50000 µM | > 17700 µg/mL and > 50000 µM | 34.8 ± 8.8% | 0.8% | 0 nM | 430 nM | 350 nM | 330 nM | 290 nM | 70 nM | 10 nM | 0 nM | 
CCOC(=O)C1=C[C@@H](OC(CC)CC)[C@H](NC(C)=O)[C@@H](N/C(C)=N/O)C1 [Compound 4, (3R,4R,5S)-4-acetamido-5-[N—(N′-hydroxy)acetimidamido]-3-(1-ethylpropoxy)cyclohex-1-en-1-carboxylic acid ethyl ester] | > 20 mM | > 18500 µg/mL and > 50000 µM | 8600 ± 400 µg/mL | 8600 ± 700 µg/mL | 26.7 ± 2.5% |  | 0 nM | 6500 nM | 8980 nM | 8800 nM | 8100 nM | 6430 nM | 5340 nM | 2190 nM | solubility (physchem; aqueous buffer, pH 7.4, 50 mM KH2PO4 buffer): 23.2 ± 1.2 mM (≈ 8570 µg/mL); solubility (physchem; aqueous buffer, pH 9.0, 50 mM KH2PO4 buffer): 23.3 ± 1.8 mM (≈ 8610 µg/mL); Plasma level of intermediary metabolite 11 (Conc.) after oral administration of derivative 4 (in vivo; 0 min): 0 nM; Plasma level of intermediary metabolite 11 (Conc.) after oral administration of derivative 4 (in vivo; 30 min): 7220 nM; Plasma level of intermediary metabolite 11 (Conc.) after oral administration of derivative 4 (in vivo; 60 min): 2680 nM; Plasma level of intermediary metabolite 11 (Conc.) after oral administration of derivative 4 (in vivo; 90 min): 2160 nM; Plasma level of intermediary metabolite 11 (Conc.) after oral administration of derivative 4 (in vivo; 120 min): 1960 nM; Plasma level of intermediary metabolite 11 (Conc.) after oral administration of derivative 4 (in vivo; 180 min): 850 nM; Plasma level of intermediary metabolite 11 (Conc.) after oral administration of derivative 4 (in vivo; 240 min): 490 nM; Plasma level of intermediary metabolite 11 (Conc.) after oral administration of derivative 4 (in vivo; 360 min): 130 nM
CCOC(=O)C1=C[C@@H](OC(CC)CC)[C@H](NC(C)=O)[C@@H](NC(N)=NO)C1 [Compound 6, (3R,4R,5S)-4-acetamido-[N—(N′ hydroxy)guanidino]-3-(1-ethylpropoxy)cyclohex-1-en-1-carboxylic acid ethyl ester] | > 50 mM | > 18500 µg/mL and > 50000 µM | > 18500 µg/mL and > 50000 µM | > 18500 µg/mL and > 50000 µM | 37.5 ± 10.1% | 1.7% |  |  |  |  |  |  |  |  | Plasma level of derivative 9 (Conc.) after oral administration of the labelled derivative (in vivo; 0 min): 0 nM; Plasma level of intermediary metabolite 12 (Conc.) after oral administration of derivative 6 (in vivo; 0 min): 0 nM; Plasma level of derivative 9 (Conc.) after oral administration of the labelled derivative (in vivo; 30 min): 200 nM; Plasma level of intermediary metabolite 12 (Conc.) after oral administration of derivative 6 (in vivo; 30 min): 200 nM; Plasma level of derivative 9 (Conc.) after oral administration of the labelled derivative (in vivo; 60 min): 220 nM; Plasma level of intermediary metabolite 12 (Conc.) after oral administration of derivative 6 (in vivo; 60 min): 160 nM; Plasma level of derivative 9 (Conc.) after oral administration of the labelled derivative (in vivo; 90 min): 180 nM; Plasma level of intermediary metabolite 12 (Conc.) after oral administration of derivative 6 (in vivo; 90 min): 200 nM; Plasma level of derivative 9 (Conc.) after oral administration of the labelled derivative (in vivo; 120 min): 190 nM; Plasma level of intermediary metabolite 12 (Conc.) after oral administration of derivative 6 (in vivo; 120 min): 190 nM; Plasma level of derivative 9 (Conc.) after oral administration of the labelled derivative (in vivo; 180 min): 210 nM; Plasma level of intermediary metabolite 12 (Conc.) after oral administration of derivative 6 (in vivo; 180 min): 80 nM; Plasma level of derivative 9 (Conc.) after oral administration of the labelled derivative (in vivo; 240 min): 180 nM; Plasma level of intermediary metabolite 12 (Conc.) after oral administration of derivative 6 (in vivo; 240 min): 10 nM; Plasma level of derivative 9 (Conc.) after oral administration of the labelled derivative (in vivo; 360 min): 50 nM; Plasma level of intermediary metabolite 12 (Conc.) after oral administration of derivative 6 (in vivo; 360 min): 0 nM
CCOC(=O)C1=C[C@@H](OC(CC)CC)[C@H](NC(C)=O)[C@@H](NC(=N)N)C1 [Compound 10] | > 50 mM | > 23400 µg/mL and > 50000 µM | > 23400 µg/mL and > 50000 µM | > 23400 µg/mL and > 50000 µM | 30.1 ± 2.3% | 1.1% |  |  |  |  |  |  |  |  | 
CC(=O)N[C@H]1[C@H]([C@H](O)[C@H](O)CO)OC(C(=O)O)=C[C@@H]1N=C(N)N [Zanamivir, reference compound] |  |  |  |  |  |  |  |  |  |  |  |  |  |  | 90% inhibitory concentration, A/Jena/5258/2009 [1]: 0.125 (0.219) μM; 95% inhibitory concentration (values in parentheses), A/Jena/5258/2009 [1]: 0.125 (0.219) μM; IC50 [2]: > 19500 nM; IC50 [3]: 600 nM

— patent US9828333B2, “Compounds for the treatment of influenza” (CHRISTIAN-ALBRECHTS-UNIVERSITAT ZU KIEL, priority 2011, dated 2017)
